Results published in US20060069132A1, “Azolecarboxamide herbicides” (priority 2004, published 2006).
Read-outs that look alike come from different tables or passages of the source.

Key:
corn = assay: Test B pre-/postemergence herbicide test; format: in vivo, Zea mays
How it was run: (§1)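 Pre: seeds sown, then sprayed. Post: 1–4-leaf plants (2–18 cm) sprayed at the same time. Paddy: flooded, treated at 2-leaf stage. Formulation: non-phytotoxic solvent with surfactant. Greenhouse 13–15 days; visual 0–100 score relative to controls.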

wild oat = assay: Test B postemergence herbicide test; format: in vivo, Avena fatua; settings: Avena fatua, post-emergence, 336 h, read-out: Oat, Wild plant response rating
How it was run: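 Postemergence plants were sprayed with formulated test chemicals at 2 to 18 cm height (1- to 4-leaf stage); paddy species were grown to the 2-leaf stage. After 13 to 15 days in a greenhouse, injury was rated visually against untreated controls on a 0–100 scale (0 = no effect, 100 = complete control).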

[1] = tested on: small flower umbrella sedge; assay: Test B flooded paddy test; format: in vivo, Cyperus difformis; settings: Cyperus difformis, 336 h, 1000 g ai/ha, scale 0 to 100 (0 no effect, 100 complete control), read-out: Sedge, Umbrella plant response rating
How it was run: (§2)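 Scale 0–100: zero equals no visible effect, 100 complete control, judged by eye relative to controls. Timing: 13 to 15 days in greenhouse post-treatment. Growth stage at spraying: two leaves (paddy) or one to four leaves, 2–18 cm (postemergence).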

rice = assay: Test B flooded paddy test; format: in vivo, Oryza sativa; settings: Oryza sativa, 336 h, 1000 g ai/ha, scale 0 to 100 (0 no effect, 100 complete control), read-out: Rice plant response rating
How it was run: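 Plants grow to 1- to 4-leaf stage (2–18 cm) for postemergence spraying, or to 2-leaf stage for the paddy test. Formulated compound is applied. Greenhouse holding lasts 13–15 days. Response is scored visually relative to controls, 0 no effect to 100 complete control; a dash means no result.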

lambsquarters = assay: Test B pre-/postemergence herbicide test; format: in vivo, Chenopodium album; settings: for pest or weed control at 500 g/ha: 500 g ai/ha
How it was run: as §1

barnyardgrass [2] = assay: Test B pre-/postemergence herbicide test; format: in vivo, Echinochloa crus-galli; settings: for pest or weed control at 500 g/ha: 500 g ai/ha
How it was run: (§3)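 Formulation: non-phytotoxic solvent mix with surfactant. Timing: preemergence on seed and postemergence on 2–18 cm plants, applied concurrently. Readout after 13–15 d greenhouse: visual 0–100 control rating against controls.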

barnyardgrass [3] = assay: Test B flooded paddy test; format: in vivo, Echinochloa crus-galli; settings: Echinochloa crus-galli, 336 h, 1000 g ai/ha, scale 0 to 100 (0 no effect, 100 complete control), read-out: Barnyardgrass plant response rating
How it was run: as §2

giant foxtail = assay: Test B pre-/postemergence herbicide test; format: in vivo, Setaria faberi; settings: for pest or weed control at 500 g/ha: 500 g ai/ha
How it was run: as §1

ducksalad = assay: Test B flooded paddy test; format: in vivo, Heteranthera limosa; settings: Heteranthera limosa, 336 h, 1000 g ai/ha, scale 0 to 100 (0 no effect, 100 complete control), read-out: Ducksalad plant response rating
How it was run: as §2

cocklebur = assay: Test B pre-/postemergence herbicide test; format: in vivo, Xanthium strumarium; settings: for pest or weed control at 500 g/ha: 500 g ai/ha
How it was run: as §3

pigweed = assay: Test B pre-/postemergence herbicide test; format: in vivo, Amaranthus retroflexus; settings: for pest or weed control at 500 g/ha: 500 g ai/ha
How it was run: as §1

velvetleaf = assay: Test B pre-/postemergence herbicide test; format: in vivo, Abutilon theophrasti
How it was run: as §1

blackgrass = assay: Test B postemergence herbicide test; format: in vivo, Alopecurus myosuroides; settings: Alopecurus myosuroides, post-emergence, 336 h, read-out: Blackgrass plant response rating
How it was run: as §2

large crabgrass = assay: Test B pre-/postemergence herbicide test; format: in vivo, Digitaria sanguinalis; settings: for pest or weed control at 500 g/ha: 500 g ai/ha
How it was run: as §1

morningglory = assay: Test B pre-/postemergence herbicide test; format: in vivo, Ipomoea coccinea; settings: for pest or weed control at 500 g/ha: 500 g ai/ha
How it was run: as §3

[4] = 125 g ai/ha, 0 is no effect, 100 is complete control, preemergence
[5] = 125 g ai/ha, visual rating, scale 0 (no effect) to 100 (complete control)
[6] = postemergence, 500 g ai/ha, scale 0 to 100, 0 is no effect, 100 is complete control

`CCc1nn(C(C)C)nc1C(=O)Nc1cccc(C(=O)N(C)C)c1` [Compound 358, N-[3-[(dimethylamino)carbonyl)phenyl]-5-ethyl-2-(1-methylethyl)-2H-1,2,3-triazole-4-carboxamide] was tested, and the “Plant response rating (0 to 100 scale), Corn” value (corn; [4]) was 60, the plant injury at 125 g/ha (corn; Zea mays, post-emergence, 125 g ai/ha, visual rating, scale 0 (no effect) to 100 (complete control), read-out: Corn plant response rating) was 0% and the plant injury at 500 g/ha (corn; Zea mays, post-emergence, postemergence, 500 g ai/ha, scale 0 to 100, 0 is no effect, 100 is complete control, read-out: Corn plant response rating) was 0%. It also gave a Corn plant response rating (crop injury, 0 = no effect, 100 = complete kill) at 500 g/ha (corn; Zea mays, pre-emergence, 500 g ai/ha, visual rating, 0 = no effect, 100 = complete control) of 100%, a pest or weed control at 125 g/ha (wild oat; [5]) of 20% and a pest or weed control at 500 g/ha (wild oat; [6]) of 30%. The pest or weed control at 1000 g/ha [1] was 80%, the plant injury at 1000 g/ha (rice) was 70% and the “Plant response rating (0 to 100 scale), Lambsquarters” value (lambsquarters; [4]) was 100. The pest or weed control at 125 g/ha (lambsquarters; Chenopodium album, post-emergence, 336 h, 125 g ai/ha, visual rating, scale 0 (no effect) to 100 (complete control), read-out: Lambsquarters plant response rating) was 30%, the pest or weed control at 500 g/ha (lambsquarters; Chenopodium album, post-emergence, 336 h, postemergence, scale 0 to 100, 0 is no effect, 100 is complete control, read-out: Lambsquarters plant response rating) was 50% and the pest or weed control at 500 g/ha (lambsquarters; Chenopodium album, pre-emergence, 336 h, visual rating, 0 = no effect, 100 = complete control, read-out: Plant response rating, Lambsquarters) was 100%. For the same compound, the “Plant response rating (0 to 100 scale), Barnyardgrass” value (barnyardgrass [2]; [4]) was 70, the pest or weed control at 125 g/ha (barnyardgrass [2]; Echinochloa crus-galli, post-emergence, 125 g ai/ha, visual rating, scale 0 (no effect) to 100 (complete control), read-out: Barnyardgrass plant response rating) was 10% and the pest or weed control at 500 g/ha (barnyardgrass [2]; Echinochloa crus-galli, post-emergence, postemergence, scale 0 to 100, 0 is no effect, 100 is complete control, read-out: Barnyardgrass plant response rating) was 20%. The pest or weed control at 500 g/ha (barnyardgrass [2]; Echinochloa crus-galli, pre-emergence, visual rating, 0 = no effect, 100 = complete control, read-out: Plant response rating, Barnyardgrass) was 100%, the pest or weed control at 1000 g/ha (barnyardgrass [3]) was 80% and the “Plant response rating (0 to 100 scale), Foxtail, Giant” value (giant foxtail; [4]) was 60. The pest or weed control at 125 g/ha (giant foxtail; Setaria faberi, post-emergence, 336 h, 125 g ai/ha, visual rating, scale 0 (no effect) to 100 (complete control), read-out: Foxtail, Giant plant response rating) was 10%, the pest or weed control at 500 g/ha (giant foxtail; Setaria faberi, post-emergence, 336 h, postemergence, scale 0 to 100, 0 is no effect, 100 is complete control, read-out: Foxtail, Giant plant response rating) was 30% and the pest or weed control at 500 g/ha (giant foxtail; Setaria faberi, pre-emergence, 336 h, visual rating, 0 = no effect, 100 = complete control, read-out: Plant response rating, Foxtail, Giant) was 100%. For the same compound, the pest or weed control at 1000 g/ha (ducksalad) was 90%, the “Plant response rating (0 to 100 scale), Cocklebur” value (cocklebur; [4]) was 40 and the pest or weed control at 125 g/ha (cocklebur; Xanthium strumarium, post-emergence, 125 g ai/ha, visual rating, scale 0 (no effect) to 100 (complete control), read-out: Cocklebur plant response rating) was 0%. The pest or weed control at 500 g/ha (cocklebur; Xanthium strumarium, post-emergence, postemergence, scale 0 to 100, 0 is no effect, 100 is complete control, read-out: Cocklebur plant response rating) was 20%, the pest or weed control at 500 g/ha (cocklebur; Xanthium strumarium, pre-emergence, visual rating, 0 = no effect, 100 = complete control, read-out: Plant response rating, Cocklebur) was 90% and the “Plant response rating (0 to 100 scale), Pigweed” value (pigweed; [4]) was 70. It also gave a pest or weed control at 125 g/ha (pigweed; Amaranthus retroflexus, post-emergence, 336 h, 125 g ai/ha, visual rating, scale 0 (no effect) to 100 (complete control), read-out: Pigweed plant response rating) of 20%, a pest or weed control at 500 g/ha (pigweed; Amaranthus retroflexus, post-emergence, 336 h, postemergence, scale 0 to 100, 0 is no effect, 100 is complete control, read-out: Pigweed plant response rating) of 40% and a pest or weed control at 500 g/ha (pigweed; Amaranthus retroflexus, pre-emergence, 336 h, visual rating, 0 = no effect, 100 = complete control, read-out: Plant response rating, Pigweed) of 100%. The “Plant response rating (0 to 100 scale), Velvetleaf” value (velvetleaf; [4]) was 50, the pest or weed control at 125 g/ha (velvetleaf; Abutilon theophrasti, post-emergence, 336 h, 125 g ai/ha, visual rating, scale 0 (no effect) to 100 (complete control), read-out: Velvetleaf plant response rating) was 10% and the pest or weed control at 500 g/ha (velvetleaf; Abutilon theophrasti, post-emergence, 336 h, postemergence, 500 g ai/ha, scale 0 to 100, 0 is no effect, 100 is complete control, read-out: Velvetleaf plant response rating) was 20%. The pest or weed control at 125 g/ha (blackgrass; [5]) was 10%, the pest or weed control at 500 g/ha (blackgrass; [6]) was 40% and the “Plant response rating (0 to 100 scale), Crabgrass, Large” value (large crabgrass; [4]) was 100. The pest or weed control at 125 g/ha (large crabgrass; Digitaria sanguinalis, post-emergence, 125 g ai/ha, visual rating, scale 0 (no effect) to 100 (complete control), read-out: Crabgrass, Large plant response rating) was 10%, the pest or weed control at 500 g/ha (large crabgrass; Digitaria sanguinalis, post-emergence, postemergence, scale 0 to 100, 0 is no effect, 100 is complete control, read-out: Crabgrass, Large plant response rating) was 10% and the pest or weed control at 500 g/ha (large crabgrass; Digitaria sanguinalis, pre-emergence, visual rating, 0 = no effect, 100 = complete control, read-out: Plant response rating, Crabgrass, Large) was 100%. The “Plant response rating (0 to 100 scale), Morningglory” value (morningglory; [4]) was 50, the pest or weed control at 125 g/ha (morningglory; Ipomoea, post-emergence, 336 h, 125 g ai/ha, visual rating, scale 0 (no effect) to 100 (complete control), read-out: Morningglory plant response rating) was 20% and the pest or weed control at 500 g/ha (morningglory; Ipomoea, post-emergence, 336 h, postemergence, scale 0 to 100, 0 is no effect, 100 is complete control, read-out: Morningglory plant response rating) was 50%. For the same compound, the pest or weed control at 500 g/ha (morningglory; Ipomoea, pre-emergence, 336 h, visual rating, 0 = no effect, 100 = complete control, read-out: Plant response rating, Morningglory) was 100%.
